Measured values from patent US20170037078A1, “2' -DIS[…] FOR TREATMENT OF THE FL[…] OF VIRUSES AND CANCER” (Cocrystal Pharma, Inc., priority 2014, published 2017).
Entries after “also recorded” stand apart in the source; their conditions may differ. Where two headings read alike, the source gives them in different places.

Columns and labels:
[1] = Cellular toxicity assay in human PBM cells; format: cell-based; settings: human, human PBM cells; read-out: Cytotoxicity, CC50
Procedure: (§1) The toxicity of the compounds was assessed in Vero, human PBM, CEM (human lymphoblastoid), MT-2, and HepG2 cells, as described previously (see Schinazi R. F., Sommadossi J.-P., Saalmann V., Cannon D. L., Xie M.-Y., Hart G. C., Smith G. A. & Hahn E. F. Antimicrob. Agents Chemother. 1990, 34, 1061-67). Cycloheximide was included as positive cytotoxic control, and untreated cells exposed to solvent were included as negative controls. The cytotoxicity IC50 was obtained from the concentration-response curve using the median effective method described previously (see Chou T.-C. & Talalay P. Adv. Enzyme Regul. 1984, 22, 27-55; Belen'kii M. S. & Schinazi R. F. Antiviral Res. 1994, 25, 1-11).

[2] = tested on: Human PBM; assay: Cellular toxicity assay in human PBM cells; format: cell-based; settings: Human PBM cells
Procedure: as §1

[3] = tested on: Primary human bone marrow mononuclear cells; assay: Bone Marrow Colony Forming Cell Assay (BFU-E); format: cell-based
Procedure: Primary human bone marrow mononuclear cells were obtained commercially from Cambrex Bioscience (Walkersville, Md.). CFU-GM assays were carried out using a bilayer soft agar in the presence of 50 units/mL human recombinant granulocyte/macrophage colony-stimulating factor, while BFU-E assays used a […] matrix containing 1 unit/mL erythropoietin (see Sommadossi J P, Carlisle R. Toxicity of 3′-azido-3′-deoxythymidine and 9-(1,3-dihydroxy-2-propoxymethyl) guanine for normal human hepatopoietic progenitor cells in vitro. Antimicrob. Agents Chemother. 1987; 31: 452-454; Sommadossi, J P, Schinazi, R F, Chu, C K, and Xie, M Y. Comparison of cytotoxicity of the (−) and (+) enantiomer of 2′,3′-dideoxy-3′-thiacytidine in normal human bone marrow progenitor cells. Biochem. Pharmacol. 1992; 44:1921-1925). Each experiment was performed in duplicate in cells from three different donors. AZT was used as a positive control. […] The 50% inhibitory concentration (IC50) was obtained by least-squares linear regression analysis of the logarithm of drug concentration versus BFU-E survival fractions. Statistical analysis was performed with Student's t test for independent non-paired samples.

[4] = tested on: HepG2 cells; assay: Mitochondrial toxicity assay: lactic acid production in HepG2 cells; format: cell-based; settings: 14-day assay
Procedure: To measure the effects of the compounds on lactic acid production, HepG2 cells from a stock culture were diluted and plated in 12-well culture plates at 2.5×10^4 cells per well. […] […] The culture medium was then filtered, and the lactic acid content in the medium was determined using a colorimetric lactic acid assay (Sigma-Aldrich). Since lactic acid product can be considered a marker for impaired mitochondrial function, elevated levels of lactic acid production detected in cells grown in the presence of test compounds would indicate a drug-induced cytotoxic effect. • ii) Effect of Compounds on Mitochondrial DNA Synthesis:

[5] = Cellular toxicity assay in CEM cells; format: cell-based, human; settings: human, CEM lymphoblastoid cells, read-out: Cytotoxicity, CC50
Procedure: as §1

[6] = tested on: CEM (human lymphoblastoid); assay: Cellular toxicity assay in CEM cells; format: cell-based
Procedure: as §1

[7] = Cellular toxicity assay in Vero cells; format: cell-based; settings: African green monkey, read-out: Cytotoxicity, CC50
Procedure: as §1

[8] = tested on: Vero; assay: Cellular toxicity assay in Vero cells; format: cell-based
Procedure: as §1

[9] = tested on: HCV GT 1b replicon (Huh-7 cells); assay: HCV Replicon Assay; format: cell-based; settings: Hepatitis C virus, GT1B
Procedure: (§2) Huh 7 Clone B cells containing HCV Replicon RNA were seeded in a 96-well plate at 5000 cells/well, and the compounds tested at 10 μM in triplicate immediately after seeding. Following five days incubation (37° C., 5% CO2), total cellular RNA was isolated by using versaGene RNA purification kit from Gentra. Replicon RNA and an internal control (TaqMan rRNA control reagents, Applied Biosystems) were amplified in a single step multiplex Real Time RT-PCR Assay. The antiviral effectiveness of the compounds was calculated by subtracting the threshold RT-PCR cycle of the test compound from the threshold RT-PCR cycle of the no-drug control (ΔCt HCV). A ΔCt of 3.3 equals a 1-log reduction (equal to 90% less starting material) in Replicon RNA levels. The cytotoxicity of the compounds was also calculated by using the ΔCt rRNA values. 2′-C-Me-C was used as the positive control. To determine EC90 and IC50 values^2, ΔCt: values were first converted into fraction of starting material^3 and then were used to calculate the % inhibition.

[10] = tested on: HepG2 cells; assay: Mitochondrial toxicity assay: mitochondrial and nuclear DNA levels in HepG2 cells; format: cell-based; settings: 14-day assay; for inhibition at 10 µM / inhibition at 50 µM / IC50: Homo sapiens, 336 h
Procedure: This assay was used in all studies described in this application that determine the effect of compounds on mitochondrial DNA content. In this assay, low-passage-number HepG2 cells were seeded at 5,000 cells/well in collagen-coated 96-well plates. Test compounds were added to the medium to obtain final concentrations of 0 μM, 0.1 μM, 10 μM and 100 μM. […] The mitochondrial cytochrome c oxidase subunit II (COXII) gene and the β-actin or rRNA gene were amplified from 5 μl of the eluted nucleic acids using a multiplex Q-PCR protocol with suitable primers and probes for both target and reference amplifications. […] For exon 3 of the […] gene (GenBank accession number E01094) the sense, probe, and antisense primers are 5′-[…]-3′, 5′-6-[…]-3′ and 5′-[…]-3′, respectively. The primers and probes for the rRNA gene are commercially available from Applied Biosystems. […] The arithmetic formula for this approach is given by 2-ΔΔCT, where ΔΔCT is (CT for average target test sample−CT for target control)−(CT for average reference test−CT for reference control) (see Johnson M R, K Wang, J B Smith, M J Heslin, R B Diasio. Quantitation of dihydropyrimidine dehydrogenase expression by real-time reverse transcription polymerase chain reaction. Anal. Biochem. 2000; 278:175-184). A decrease in mitochondrial DNA content in cells grown in the presence of drug indicated mitochondrial toxicity.

[11] = Cytotoxicity in HCV replicon assay (ΔCt rRNA); format: cell-based; settings: human, Huh-7 Clone B cells containing HCV GT 1b replicon RNA; HCV GT 1b replicon Huh-7 cells
Procedure: as §2

[12] = target: T1, Human DNA Polymerase Pol Gamma (Homo sapiens, UniProt P54098); assay: Inhibition of Human DNA Polymerase Gamma; format: biochemical
T1 construct: made in house
T1 sequence (P54098 26-1239 limits assumed): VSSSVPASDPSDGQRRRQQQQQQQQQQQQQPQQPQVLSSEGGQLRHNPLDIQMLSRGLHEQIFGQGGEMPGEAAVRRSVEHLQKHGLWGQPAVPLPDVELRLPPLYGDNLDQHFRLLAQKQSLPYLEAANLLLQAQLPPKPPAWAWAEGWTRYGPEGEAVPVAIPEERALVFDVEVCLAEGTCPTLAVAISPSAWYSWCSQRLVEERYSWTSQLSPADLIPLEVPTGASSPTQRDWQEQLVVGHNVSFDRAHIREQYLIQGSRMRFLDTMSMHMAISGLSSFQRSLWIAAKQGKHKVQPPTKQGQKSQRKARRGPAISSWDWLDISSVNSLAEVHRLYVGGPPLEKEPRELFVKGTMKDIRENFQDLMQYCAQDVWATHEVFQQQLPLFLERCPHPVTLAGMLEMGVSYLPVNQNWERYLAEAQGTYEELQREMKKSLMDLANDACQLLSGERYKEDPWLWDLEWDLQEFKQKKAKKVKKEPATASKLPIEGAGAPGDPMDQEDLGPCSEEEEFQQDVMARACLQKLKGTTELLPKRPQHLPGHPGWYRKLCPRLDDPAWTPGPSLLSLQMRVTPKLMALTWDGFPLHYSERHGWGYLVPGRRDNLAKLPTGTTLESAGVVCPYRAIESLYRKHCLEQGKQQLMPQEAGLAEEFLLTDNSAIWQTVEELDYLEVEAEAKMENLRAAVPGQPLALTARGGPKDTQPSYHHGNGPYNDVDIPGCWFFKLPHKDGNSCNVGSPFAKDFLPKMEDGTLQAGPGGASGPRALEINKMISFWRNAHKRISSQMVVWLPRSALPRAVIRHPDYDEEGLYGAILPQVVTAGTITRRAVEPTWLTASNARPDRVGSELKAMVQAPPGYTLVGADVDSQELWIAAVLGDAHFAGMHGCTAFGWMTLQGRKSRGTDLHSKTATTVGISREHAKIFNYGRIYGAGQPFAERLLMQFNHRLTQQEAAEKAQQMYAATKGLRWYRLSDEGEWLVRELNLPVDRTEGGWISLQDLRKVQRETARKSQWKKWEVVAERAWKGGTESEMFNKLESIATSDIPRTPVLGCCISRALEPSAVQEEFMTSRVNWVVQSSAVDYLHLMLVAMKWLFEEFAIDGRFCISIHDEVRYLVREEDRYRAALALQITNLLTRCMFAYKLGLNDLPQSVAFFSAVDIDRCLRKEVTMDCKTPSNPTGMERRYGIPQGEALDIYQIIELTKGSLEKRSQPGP
T1 sequence (Q9UHN1 26-485 partner limits assumed): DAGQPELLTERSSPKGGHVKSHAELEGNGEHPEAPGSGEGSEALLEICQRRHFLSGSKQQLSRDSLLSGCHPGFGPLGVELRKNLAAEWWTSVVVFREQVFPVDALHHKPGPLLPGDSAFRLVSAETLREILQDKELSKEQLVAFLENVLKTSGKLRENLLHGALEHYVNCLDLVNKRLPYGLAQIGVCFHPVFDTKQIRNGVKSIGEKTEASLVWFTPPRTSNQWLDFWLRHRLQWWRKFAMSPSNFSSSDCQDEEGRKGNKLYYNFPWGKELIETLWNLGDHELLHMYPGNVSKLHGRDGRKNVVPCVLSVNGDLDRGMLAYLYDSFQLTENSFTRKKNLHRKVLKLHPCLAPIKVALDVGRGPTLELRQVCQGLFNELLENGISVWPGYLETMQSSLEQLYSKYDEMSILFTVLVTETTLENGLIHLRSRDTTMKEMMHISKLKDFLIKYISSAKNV

[13] = target: Human DNA Polymerase Pol Beta (Homo sapiens, UniProt P06746); assay: Inhibition of Human DNA Polymerase Beta; format: biochemical

CC(C)OC(=O)[C@H](C)NP(=O)(OC[C@H]1O[C@@H](n2ccc(=O)[nH]c2=O)C(F)(Cl)[C@H]1O)Oc1ccccc1 (stereo partly drawn) [Compound 12, (2S)-isopropyl-2-(((4-chloro-5-(2,4-dioxo-3,4-dihydropyrimidin-1 (2H)-yl-4-fluoro-3-hydroxytetrahydrofuran-2-yl)methoxy) (phenoxy)phosphoryl)amino)propanoate]
CC50 [1]: > 100 µM | % inhibition at maximum concentration evaluated [2]: 36.2% | IC50 ([3]; Donor 2): > 100 µM | IC50 ([3]; Homo sapiens, Donor 1): > 100 µM | Lactic acid Production (% of control) ([4]; 10 μM): 60.20 ± 1.25 % of control | Lactic acid Production (% of control) ([4]; 50 μM): 55.49 ± 0.88 % of control | CC50 [5]: > 100 µM | % inhibition at maximum concentration evaluated [6]: −4.8% | CC50 [7]: > 100 µM | % inhibition at maximum concentration evaluated [8]: 17.4% | EC50 [9]: 0.1 to 1 µM | EC90 [9]: 0.1 to 1 µM | Summary (mitochondrial toxicity) [10]: non-toxic; also recorded: not toxic | MtDNA Content (% of control) ([10]; 10 μM): 129 (117-143) % of control | MtDNA Content (% of control) ([10]; 50 μM): 84 (68-102) % of control | inhibition at 10 µM ([10]; 10 μM, read-out: % Inhibition MtDNA): < 1% | inhibition at 10 µM ([10]; 10 μM, read-out: % Inhibition nDNA): < 1% | inhibition at 50 µM ([10]; 50 μM, read-out: % Inhibition MtDNA): 27% | inhibition at 50 µM ([10]; 50 μM, read-out: % Inhibition nDNA): 12.8% | IC50 ([10]; read-out: IC50, MtDNA): > 50 µM | IC50 ([10]; read-out: IC50, nDNA): > 50 µM | CC50 at 5 days [11]: > 10 µM

Cc1cn([C@H]2CC[C@@H](COP(=O)(O)OP(=O)(O)OP(=O)(O)O)O2)c(=O)[nH]c1=O [ddTTP]
IC50 [12]: 43 µM | IC50 [13]: 18 µM
